# Data: ChEMBL document CHEMBL1157675, “Anti-inflammatory diterpenes from the seeds of Vitex negundo” (Bioorg Med Chem, 2010)
# Calls of active or inactive are those of the source. No cut-off for these calls is given here.
# Tests used:
# RAW264.7 [1] = experiment: Antiinflammatory activity in mouse RAW264.7 cells assessed as inhibition of LPS-induced NO production after 24 hrs by Griess reagent method; type: functional, cell-based; conditions: RAW264.7, 24 h
# RAW264.7 [2] = experiment: Antiinflammatory activity in LPS-stimulated mouse RAW264.7 cells assessed as reduction of iNOS protein expression at 5 uM after 24 hrs by Western blot analysis relative to control; type: functional; conditions: RAW264.7, 24 h, values are per cent of control
# RAW264.7 [3] = experiment: Antiinflammatory activity in LPS-stimulated mouse RAW264.7 cells assessed as reduction of COX2 protein expression at 5 uM after 24 hrs by Western blot analysis relative to control; type: functional; conditions: for response, % of control at 5 µM: RAW264.7, 24 h, values are per cent of control
# RAW264.7 [4] = experiment: Cytotoxicity against mouse RAW264.7 cells up to 50 uM after 24 hrs by MTT assay; type: cell-based; conditions: raw264.7, 24 h
# RAW264.7 [5] = experiment: Antiinflammatory activity in LPS-stimulated mouse RAW264.7 cells assessed as reduction of iNOS protein expression at 50 uM after 24 hrs by Western blot analysis relative to control; type: functional; conditions: RAW264.7, 24 h
# RAW264.7 [6] = experiment: Antiinflammatory activity in LPS-stimulated mouse RAW264.7 cells assessed as reduction of COX2 protein expression at 50 uM after 24 hrs by Western blot analysis relative to control; type: functional; conditions: RAW264.7, 24 h
IC50 (RAW264.7 [1]),SMILES,"response, % of control at 5 µM (RAW264.7 [2])",inhibition (RAW264.7 [3]),Activity (RAW264.7 [4]),"response, % of control at 5 µM (RAW264.7 [3])",inhibition at 50 µM (RAW264.7 [5]),inhibition at 50 µM (RAW264.7 [6])
9830 nM,COC(=O)/C=C1\CC[C@@]2(O1)[C@H](C)CC[C@H]1C(C)(C)[C@@H](OC(C)=O)CC[C@@]12C (relative stereo) [NEGUNDOIN A],68.2%,inactive,Non-toxic,,,
1160 nM,CC(C)c1ccc(O)c(CC[C@@H]2[C@@H](C)CC[C@H](O)C2(C)C)c1 (relative stereo) [NEGUNDOIN F],58.2%,,Non-toxic,59.7%,,
120 nM,CC(=O)O[C@H]1CC[C@@]2(C)[C@@H](CC[C@@H](C)[C@]23CC/C(=C\C=O)O3)C1(C)C (relative stereo) [NEGUNDOIN C],0.4%,,Non-toxic,2.06%,,
45500 nM,COc1ccc2c(c1)c(CC(=O)O)c(C)n2C(=O)c1ccc(Cl)cc1 [INDOMETHACIN],,,,,86.5%,59.9%
4390 nM,CO[C@H]1OC(=O)C[C@@]12CC[C@@]1(O2)[C@H](C)CC[C@H]2C(C)(C)[C@@H](OC(C)=O)CC[C@@]21C (relative stereo) [NEGUNDOIN D],62%,inactive,Non-toxic,,,
700 nM,C=C[C@@]1(C)CCC2C(=C[C@@H](O)[C@H]3C(C)(C)CCC[C@]23CO)C1=O (relative stereo) [NEGUNDOIN G],,,Non-toxic,,,
23400 nM,CC(=O)O[C@H]1CC[C@@]2(C)[C@@H](CC[C@@H](C)[C@]23CC/C(=C\C(=O)O)O3)C1(C)C (relative stereo) [NEGUNDOIN B],,,Non-toxic,,,
230 nM,CC(=O)O[C@H]1CC[C@@]2(C)[C@@H](CC[C@@H](C)[C@]23CC[C@@]2(CCO[C@H]2O)O3)C1(C)C (relative stereo) [NEGUNDOIN E],41%,,Non-toxic,26.4%,,
